Assay results as given in PMC7730513, “A Topical Formulation of Melatoninergic Compounds Exerts Strong Hypotensive and Neuroprotective Effects in a Rat Model of Hypertensive Glaucoma” (International Journal of Molecular Sciences, 2020).
Where “and” joins values, the source holds several entries; their conditions need not be identical. Identical values can stand only once. Entries after “also recorded” stand apart in the source; their conditions may differ. Like-named read-outs stand apart in the source and are kept apart here.

Experiments:
in vivo = conditions: rat
Experimental: (§4) Two hours after the last treatment, animals were euthanized with an overdose of pentobarbital and the eye globes removed. One eye of each rat was taken whole, while the fellow eyes were dissected, and retinas and vitreous humors were separately taken. Whole eyes were cut in small pieces and separately homogenized with an Ultra-turrax homogenizer for 3 min on ice at 4 °C in 0.25 mL of methanol, then subjected to 1 min of ultrasonication in a cold-water bath. The five retinas were pooled together and extracted as before in 0.1 mL of methanol. Each vitreous body was diluted with 0.05 mL of methanol and sonicated. All samples were finally centrifuged 10 min at 10,000× g rpm and the supernatants were saved frozen for further analysis. […] The operational MS parameters of the instrument were: gas temperature, 350 °C; gas flow, 5 L/min; nebulizer, 20 psi; capillary, 3500 V; collision energy, 15 V; dwell-time, 200 msec; fragmentor, 135 V.

MT2 melatonin receptor = conditions: read-out: Affinity of MT2 melatonin receptor; cited from earlier work
[1] = Sprague-Dawley, rat, in vivo, 2 h
Experimental: as §4

MT1 melatonin receptor = conditions: read-out: Affinity of MT1 melatonin receptor; cited from earlier work
[2] = Pharmacokinetics study: eye tissue distribution of melatonin/agomelatine eye drops by HPLC/MS/MS in healthy rats; conditions: for concentration at 2 h: rat, topical, 40 µg
Experimental: as §4

[3] = test system: MCE rat model of hypertensive glaucoma; experiment: Pattern ERG (PERG); type: in vivo; conditions: two weeks after MCE
Experimental: (§1) The model was originally developed in rabbits and then applied to rodents. It is based on the injection of 2% MCE in sterile saline in the anterior chamber of the eye. The MCE used in the present study (M0512; Sigma Aldrich, St. Louis, MO, USA) is pure and has a molecular weight of about 88,000 and, when dissolved in aqueous solution at 2% gives a solution with a viscosity ranging from 3500 to 5600 cps. Rats, anesthetized with an intraperitoneal injection of pentobarbital (30 mg/kg), were injected into the anterior chamber with 15 µL of MCE in both eyes using a 18G needle in agreement with published protocols. […] The eyes of each rat were evaluated for unintended adverse effects of intraocular injection -e.g., cataract, corneal opacity or edema that could impact electrophysiological parameters and/or tonometer accuracy.
(§2) Eye drops (10 µL) were administered to both eyes two times a day over two weeks after MCE injection. Eye drops were instilled at 10 a.m. and at 6 p.m.
PERG responses, mainly generated by RGC activity, can be useful for assessing RGC function in conditions such as glaucoma and ischemic optic neuropathy. PERG responses were evoked using an alternating pattern of black and white horizontal bars delivered on a stimulus display unit from a commercially available PERG system (SB700 Advanced, Nikon-Europe, Amsterdam, The Netherlands). Stimuli consisted in 0.05 cycles/deg black and white bars reversing at 1 Hz presented at 98% contrast. The pattern stimuli were administered through a light emitting diode display with a mean luminance of 50 cd/m^2 aligned at about 20 cm from the corneal surface. A total of 200 signals were averaged. Each animal was placed at the same fixed position in front of the monitor to prevent recording variability due to animal placement. PERG recordings were sequentially conducted in both eyes. The PERG response was evaluated by measuring the amplitude of the N35-P50 wave (from the trough of the negative peak N35, a small deflection near 35 ms after the stimulus, to the peak of the positive peak P50, a deflection near 50 ms after the stimulus) and the P50-N95 wave (from the peak of the positive peak P50 to the trough of the negative peak N95, a deflection near 95 ms after the stimulus). The implicit time was determined by measuring the time from the onset of the stimulus to the P50 and N95 peaks.

[4] = test system: MCE rat model of hypertensive glaucoma; experiment: Photopic full-field ERG, photopic negative response (PhNR); type: in vivo; conditions: two weeks after MCE; versus respective vehicle
Experimental: as §1, §2

active caspase 3 = experiment: Western blot of retinal homogenates, active caspase 3; type: in vivo, rat; conditions: retina, MCE model, versus respective vehicle
Experimental: as §1, with “accuracy. […]” for “accuracy.”
(§3) After animal euthanization with an overdose of pentobarbital, retinas were isolated and stored at −80 °C. […] Protein concentration was measured using the Micro BCA Protein Assay (Thermo Fisher Scientific, Waltham, MA, USA). […] Blots were blocked for 1 h with 5% skim milk and incubated overnight at 4 °C with the primary antibodies listed in Supplementary Table S1 that are routinely used to detect the inflammatory and the apoptotic markers as determined in the present study. β-actin was used as loading control. […]

IL-4 = experiment: Western blot of retinal homogenates, IL-4; type: in vivo, rat; conditions: retina, MCE model, versus respective vehicle
Experimental: as §1, with “accuracy. […]” for “accuracy.”
as §3

IL-1β = experiment: Western blot of retinal homogenates, IL-1β; type: in vivo, rat; conditions: retina, MCE model, versus respective vehicle
Experimental: as §1, with “accuracy. […]” for “accuracy.”
as §3

[5] = after administration of 0.1% eye drops; cited from earlier work
[6] = brimonidine eye drops in monkeys; cited from earlier work
GFAP = experiment: Western blot of retinal homogenates, GFAP; type: in vivo, rat; conditions: retina, MCE model, versus respective vehicle
Experimental: as §1, with “accuracy. […]” for “accuracy.”
as §3

Brn3a-positive RGCs = experiment: RGC density by Brn3a immunohistochemistry in retinal flat mounts; type: in vivo, rat; conditions: for RGC loss spared: MCE reduced RGC density by about 29%; for RGC density (% of control), Central: central retina; for RGC density (% of control), Central / RGC density (% of control), Middle / RGC density (% of control), Peripheral: MCE + treatment, mean ± SEM, n = 6; for RGC density (% of control), Middle: middle retina; for RGC density (% of control), Peripheral: peripheral retina
Experimental: as §1, §2
After animal euthanization with an overdose of pentobarbital, six retinas from independent rats for each experimental group were explanted. Retinas were then fixed for 90 min at 4 °C in 4% paraformaldehyde in 0.1 M phosphate buffer (PB) and stored at 4 °C in 25% sucrose in 0.1 M PB. Retinal ganglion cells were labeled incubating the retinas for 24 h at 4 °C with a mouse monoclonal antibody against Brn3a (1:100 in PB containing 5% BSA and 2% TritonX-100; sc-8429; Santa Cruz Biotechnology, Santa Cruz, CA, USA). Retina whole mounts were then washed with PB and incubated overnight at 4 °C in an AlexaFluor555-conjugated secondary antibody (1:100; A-32727; Molecular Probes, Eugene, OR, USA). Finally, retinas were washed with PB, mounted on glass slides with the photoreceptor side facing down and viewed with a fluorescence microscope (Ni-E; Nikon-Europe, Amsterdam, The Netherlands). Images of the entire retina were acquired by a DS-Fi1c camera (Nikon-Europe) and Brn3a-positive cells were counted using the NIS-Elements software (Nikon-Europe). […] In total, 12 images were taken from each retina. The density of Brn3a-positive cells (number of cells per mm^2) was compared between the different experimental groups. Quantification was performed in a masked manner.

Iba1 = experiment: Western blot of retinal homogenates, Iba1; type: in vivo, rat; conditions: retina, MCE model, versus respective vehicle
Experimental: as §1, with “accuracy. […]” for “accuracy.”
as §3

TNF-α = experiment: Western blot of retinal homogenates, TNF-α; type: in vivo, rat; conditions: retina, MCE model, versus respective vehicle
Experimental: as §1, with “accuracy. […]” for “accuracy.”
as §3

Bax/Bcl-2 = experiment: Western blot of retinal homogenates, Bax/Bcl-2 ratio; type: in vivo, rat; conditions: retina, MCE model, versus respective vehicle
Experimental: as §1, with “accuracy. […]” for “accuracy.”
as §3

IL-6 = experiment: Western blot of retinal homogenates, IL-6; type: in vivo, rat; conditions: retina, MCE model, versus respective vehicle
Experimental: as §1, with “accuracy. […]” for “accuracy.”
as §3

IL-10 = experiment: Western blot of retinal homogenates, IL-10; type: in vivo, rat; conditions: retina, MCE model, versus respective vehicle
Experimental: as §1, with “accuracy. […]” for “accuracy.”
as §3

[7] = test system: MCE rat model of hypertensive glaucoma; experiment: IOP measurement by tonometry in the MCE model; type: in vivo; conditions: after two weeks of eye drops twice a day; in respect to the respective vehicle (vehicle 1 saline for timolol, brimonidine; vehicle 2 nanomicellar for melatonin/agomelatine)
Experimental: as §1, §2

[8] = of 120 µg given in 3 administrations of 40 µg

Row | Amplitude of the N35-P50 and P50-N95 waves, effect versus vehicle [3] | MCE-induced increase in the implicit time of the P50 and N95 components [3] | Structure (SMILES) | Ki (MT2 melatonin receptor) [nM] | PhNR amplitude [4] | Decrease of the levels of the active form of caspase 3 (active caspase 3) | Increase of IL-4 levels (IL-4) | Reduction of IL-1β levels (IL-1β) | Reduction of GFAP levels (GFAP) | RGC loss spared (Brn3a-positive RGCs) | RGC density (% of control), Central (Brn3a-positive RGCs) | RGC density (% of control), Middle (Brn3a-positive RGCs) | RGC density (% of control), Peripheral (Brn3a-positive RGCs) | Reduction of Iba1 levels (Iba1) | Reduction of TNF-α levels (TNF-α) | Reduction of the Bax/Bcl-2 ratio (Bax/Bcl-2) | Reduction of IL-6 levels (IL-6) | Increase of IL-10 levels (IL-10) | other results
1 | – | – | COc1ccc2[nH]cc(CCNC(C)=O)c2c1 [melatonin] | 0.38 | – | – | – | – | – | – | – | – | – | – | – | – | – | – | concentration at 2 h (in vivo; Sprague-Dawley, Concentration in the retina (molar)): ~17 nM; concentration at 2 h (in vivo; Concentration in the retina (molar)): 17 nM; concentration at 2 h (in vivo; Concentration in the vitreous humor (molar)): 43 nM; Fraction of the 120 µg given retained in the whole eye [1]: roughly 1%
2 | – | – | COc1ccc2cccc(CCNC(C)=O)c2c1 [agomelatine] | 0.12 | – | – | – | – | – | – | – | – | – | – | – | – | – | – | Ki (MT1 melatonin receptor): 0.01 nM; concentration at 2 h ([2]; Sprague-Dawley, retina, Concentration in the retina (molar), converted from ng/mg): ~378 nM; concentration at 2 h ([2]; Sprague-Dawley, retina, Concentration, pool of retinas, pool of retinas of animals 1 to 5, 3 x 40 µg eye drops, 2 h after last instillation): 96 ng/g; concentration at 2 h ([2]; Sprague-Dawley, vitreous humor, Concentration, vitreous, individual animals 1-5, 3 x 40 µg eye drops, 2 h after last instillation): 71 ng/g; concentration at 2 h ([2]; Sprague-Dawley, vitreous humor, Concentration, vitreous, mean, mean of 5 animals, 3 x 40 µg eye drops, 2 h after last instillation): 80 ng/g; concentration at 2 h ([2]; Sprague-Dawley, whole eye, Concentration, whole eye, individual animals 1-5, 3 x 40 µg as 10 µL eye drops 2 h apart, sampled 2 h after last instillation): 10900 ng/g; concentration at 2 h ([2]; Sprague-Dawley, whole eye, Concentration, whole eye, mean, mean of 5 animals, 3 x 40 µg eye drops, 2 h after last instillation): 9940 ng/g; Content in the whole eye relative to melatonin ([2]; agomelatine 9.94 ng/mg vs melatonin 7.44 ng/mg): 1.33 times; Concentration, whole eye ([2]; individual animals 1-5, 3 x 40 µg as 10 µL eye drops 2 h apart, sampled 2 h after last instillation): 10.64 ng/mg and 11.35 ng/mg and 9.16 ng/mg and 7.67 ng/mg; Concentration, vitreous ([2]; individual animals 1-5, 3 x 40 µg eye drops, 2 h after last instillation): 0.073 ng/mg and 0.099 ng/mg and 0.077 ng/mg and 0.084 ng/mg; Concentration, vitreous, mean ([2]; mean of 5 animals, 3 x 40 µg eye drops, 2 h after last instillation): 0.081 ng/mg; Amount retained in the whole eye [2, 8]: 1.59 µg; Fraction of the 120 µg given retained in the whole eye [2, 8]: ~1.3%; concentration at 2 h ([2]; retina, Concentration in the retina (molar), converted from ng/mg): 378 nM; concentration at 2 h ([2]; vitreous humor, Concentration in the vitreous humor (molar), converted from ng/mg): 332 nM; Retina concentration relative to melatonin ([2]; retina): twenty-two times higher
3 | partly prevented the reduction | prevented | Brc1c(NC2=NCCN2)ccc2nccnc12 [brimonidine] | – | almost restoring the PhNR amplitude to control levels | ~2.2 fold | did not affect | did not affect | about 1.6 fold | spared almost completely; also recorded: almost completely prevented | 88 ± 3 % of control | 91 ± 6 % of control | 91 ± 3 % of control | not affecting | did not affect | ~9.7 fold | did not affect | did not affect | Amplitude of the P50-N95 wave, lower than in controls ([3]; MCE alone about 55% reduced): ~25%; Amplitude of the N35-P50 wave, lower than in controls ([3]; MCE alone about 60% reduced): about 24%; Vitreous concentration [5]: 2 nM; Concentration values after eye drops [6]: around 80 nM
4 | did not differ | did not affect | CC(C)(C)NC[C@H](O)COc1nsnc1N1CCOCC1 [timolol] | – | did not differ | about 1.3 fold | did not affect | did not affect | did not affect | about 11% | 78 ± 4 *^,§ % of control | 83 ± 3 *^,§ % of control | 81 ± 4 *^,§ % of control | did not affect | did not affect | about 1.6 fold | did not affect | did not affect | Reduction of the MCE-induced increase in IOP [7]: about 32%
